Experimental data reported in US11274332B2, “Methods of administering 3,4-diaminopyridine” (SERB SA, priority 2011, dated 2022).
Read-outs that look alike come from different tables or passages of the source.

Assay: Example 18 Part 2: multiple dose PK (20 mg QID) of 3,4-DAP and 3-N-acetyl metabolite in slow and fast acetylators
Format: in vivo, human
Conditions: for AUC(0-t) / Cmax / Tmax / Vd/F / half-life: both sexes, human, plasma, oral, 20 mg; for Cmax: read-out: Cmax; for Tmax: read-out: Tmax; for Vd/F: read-out: Vz/F; for half-life: read-out: t1/2 (converted)
Procedure: The following method was used to analyze concentrations of 3,4-diaminopyridine and N-(4-aminopyridin-3-yl)acetamide in plasma and urine samples for the experiments in Example 18. In the LC/MS/MS method, the human plasma and urine samples were extracted using acetonitrile containing 0.1% formic acid. Samples were analyzed by using HPLC with positive ion electrospray MS/MS detection. The column was an Atlantis HILIC Silica column (3 μm, 3×50 mm) at a temperature of 40° C. Mobile phase A was water containing ammonium formate (20 mM) and 0.1% formic acid. Mobile phase B was acetonitrile/isopropanol (90/10; v/v) containing 0.1% formic acid. The flow rate was 0.90 mL/minute. The gradient conditions for human plasma and urine samples were as follows:
The LC/MS/MS method was validated to quantify 3,4-DAP in human plasma in the linear calibration range of 0.500 to 500 ng/mL and from 1.00 to 1000 ng/mL for the 3-N-acetyl metabolite.
The primary objective of the study was to assess the safety and tolerability of 3,4-DAP phosphate after single and multiple doses. The secondary objectives of the study were • Part 1 only: To determine the dose-related PK profile of amifampridine and of 3-N-acetyl amifampridine after single, escalating doses of 3,4-DAP phosphate • Part 2 only: To assess the steady-state plasma PK and accumulation of amifampridine and of 3-N-acetyl amifampridine over multiple days of dosing with 3,4-DAP phosphate An exploratory objective was to examine the overall activity of the N-acetyl transferase enzymes on the metabolism of amifampridine by assessing the PK of amifampridine and 3-N-acetyl amifampridine with phenotypic acetylation activity and genotyping determination of NAT2 gene polymorphisms. Study Design and Plan
This open-label study in healthy subjects (male and female) was conducted in 2 parts. A total of 26 healthy male and female subjects, 12 in Part 1 (at least 5 of each sex), 4 in Part 2 Group 1, and 10 in Part 2 Group 2 (at least 4 of each sex) were enrolled into the study. The same subjects were not enrolled to participate in both parts. Subjects in Part 2 were dosed only after all subjects of Part 1 completed dosing and at least 24-hours of follow-up safety evaluation after the last dose were completed.
All subjects were characterized for their metabolic acetylation phenotype and NAT2 genotype in order to divide subjects into two groups of acetylators. Volunteers were genetically typed for highly variant alleles of the N-acetyl transferase 2 enzyme (NAT2) domain on chromosome 8 (according to Example 16) and were phenotyped for acetylation rates with a caffeine challenge test (according to Example 15a). Approximately equal numbers of slow and fast acetylators (as defined by a caffeine challenge test in Example 15a) were enrolled in each group. In Part 2, very slow acetylators with NAT2 activity (ratio 1, Example 15a) below 0.06 were excluded from participation in the study. In each part of the study, subjects were assessed for PK, safety, and tolerability and all doses were administered within 30 min of ingestion of a meal or a snack.
Part 2, Group 1: Four sentinel subjects were selected after determining their acetylator status. Two were fast acetylators and two were slow acetylators. All four were dosed on Day 1 with 4 oral doses of 20 mg of 34-DAP phosphate (given at 4-hour dosing intervals). On Days […] and 2, safety and tolerability data was collected. Subjects left the clinic on Day 2. The safety and tolerability data collected for these 4 sentinel subjects were reviewed. The safety and tolerability results of Days 1 and 2 for these subjects were acceptable and thus Part 2 Group 2 was commenced. Minimally acceptable safety was defined as the absence of clinical seizure activity. Subjects in Group 1 returned to the clinic for their follow-up assessments 2-4 days following their last dose.
Each subject was given a final morning dose of 20 mg 3,4-DAP phosphate on Day 4. […]

[1] = Day 1, fast acetylators, Dose 1 interval, 20 mg QID, arith. mean
[2] = Day 1, fast acetylators, Dose 2 interval, 20 mg QID, arith. mean
[3] = Day 1, fast acetylators, Dose 3 interval, 20 mg QID, arith. mean
[4] = Day 1, fast acetylators, Dose 4 interval, 20 mg QID, arith. mean
[5] = Day 1, slow acetylators, Dose 1 interval, 20 mg QID, arith. mean
[6] = Day 1, slow acetylators, Dose 2 interval, 20 mg QID, arith. mean
[7] = Day 1, slow acetylators, Dose 3 interval, 20 mg QID, arith. mean
[8] = Day 1, slow acetylators, Dose 4 interval, 20 mg QID, arith. mean
[9] = Day 3, fast acetylators, Dose 1 interval, 20 mg QID, arith. mean
[10] = Day 3, fast acetylators, Dose 2 interval, 20 mg QID, arith. mean
[11] = Day 3, fast acetylators, Dose 3 interval, 20 mg QID, arith. mean
[12] = Day 3, fast acetylators, Dose 4 interval, 20 mg QID, arith. mean
[13] = Day 3, slow acetylators, Dose 1 interval, 20 mg QID, arith. mean
[14] = Day 3, slow acetylators, Dose 2 interval, 20 mg QID, arith. mean
[15] = Day 3, slow acetylators, Dose 3 interval, 20 mg QID, arith. mean
[16] = Day 3, slow acetylators, Dose 4 interval, 20 mg QID, arith. mean
[17] = metabolite, Day 4, 20 mg single dose, fast acetylators
[18] = metabolite, Day 4, 20 mg single dose, slow acetylators

Compound: CC(=O)Nc1cnccc1N [3-N-acetyl amifampridine, N-(4-aminopyridin-3-yl)acetamide]
- CL/F [1]: 16.2 L/h
- CL/F [2]: 7.78 L/h
- CL/F [3]: 8.90 L/h
- CL/F [4]: 7.62 L/h
- CL/F [5]: 28.8 L/h
- CL/F [6]: 20.2 L/h
- CL/F [7]: 13.5 L/h
- CL/F [8]: 10.4 L/h
- CL/F [9]: 11.5 L/h
- CL/F [10]: 7.56 L/h
- CL/F [11]: 7.72 L/h
- CL/F [12]: 7.03 L/h
- CL/F [13]: 19.0 L/h
- CL/F [14]: 14.5 L/h
- CL/F [15]: 12.7 L/h
- CL/F [16]: 9.65 L/h
- AUC(0-t) (Day 1, fast acetylators, Dose 1-4, 20 mg QID, arith. mean, read-out: AUC0-24): 5740 ng·h/mL
- AUC(0-t) (Day 1, fast acetylators, Dose 1 interval, 20 mg QID, arith. mean, read-out: AUC0-4): 773 ng·h/mL
- Cmax [1]: 333 ng/mL
- Tmax [1]: 1.43 h
- Vd/F [1]: 55.2 L
- half-life [1]: 2.35 h
- AUC(0-t) (Day 1, fast acetylators, Dose 2 interval, 20 mg QID, arith. mean, read-out: AUC0-4): 1160 ng·h/mL
- Cmax [2]: 396 ng/mL
- Tmax [2]: 1.5 h
- Vd/F [2]: 32.9 L
- half-life [2]: 2.93 h
- AUC(0-t) (Day 1, fast acetylators, Dose 3 interval, 20 mg QID, arith. mean, read-out: AUC0-4): 1280 ng·h/mL
- Cmax [3]: 426 ng/mL
- Tmax [3]: 0.964 h
- Vd/F [3]: 40.3 L
- half-life [3]: 3.28 h
- AUC(0-t) (Day 1, fast acetylators, Dose 4 interval, 20 mg QID, arith. mean, read-out: AUC0-4): 1340 ng·h/mL
- Cmax [4]: 433 ng/mL
- Tmax [4]: 1.14 h
- Vd/F [4]: 40 L
- half-life [4]: 3.93 h
- AUC(0-t) (Day 1, slow acetylators, Dose 1-4, 20 mg QID, arith. mean, read-out: AUC0-24): 3580 ng·h/mL
- AUC(0-t) (Day 1, slow acetylators, Dose 1 interval, 20 mg QID, arith. mean, read-out: AUC0-4): 383 ng·h/mL
- Cmax [5]: 150 ng/mL
- Tmax [5]: 1.68 h
- Vd/F [5]: 120 L
- half-life [5]: 2.95 h
- AUC(0-t) (Day 1, slow acetylators, Dose 2 interval, 20 mg QID, arith. mean, read-out: AUC0-4): 627 ng·h/mL
- Cmax [6]: 204 ng/mL
- Tmax [6]: 1.46 h
- Vd/F [6]: 101 L
- half-life [6]: 3.5 h
- AUC(0-t) (Day 1, slow acetylators, Dose 3 interval, 20 mg QID, arith. mean, read-out: AUC0-4): 759 ng·h/mL
- Cmax [7]: 240 ng/mL
- Tmax [7]: 1.25 h
- Vd/F [7]: 71.5 L
- half-life [7]: 4 h
- AUC(0-t) (Day 1, slow acetylators, Dose 4 interval, 20 mg QID, arith. mean, read-out: AUC0-4): 769 ng·h/mL
- Cmax [8]: 235 ng/mL
- Tmax [8]: 1.71 h
- Vd/F [8]: 70.6 L
- half-life [8]: 4.74 h
- AUC(0-t) (Day 3, fast acetylators, Dose 1-4, 20 mg QID, arith. mean, read-out: AUC0-24): 6570 ng·h/mL
- AUC(0-t) (Day 3, fast acetylators, Dose 1 interval, 20 mg QID, arith. mean, read-out: AUC0-4): 1020 ng·h/mL
- Cmax [9]: 374 ng/mL
- Tmax [9]: 1.35 h
- Vd/F [9]: 44.5 L
- half-life [9]: 2.77 h
- AUC(0-t) (Day 3, fast acetylators, Dose 2 interval, 20 mg QID, arith. mean, read-out: AUC0-4): 1320 ng·h/mL
- Cmax [10]: 448 ng/mL
- Tmax [10]: 1.3 h
- Vd/F [10]: 36.6 L
- half-life [10]: 3.6 h
- AUC(0-t) (Day 3, fast acetylators, Dose 3 interval, 20 mg QID, arith. mean, read-out: AUC0-4): 1410 ng·h/mL
- Cmax [11]: 490 ng/mL
- Tmax [11]: 0.9 h
- Vd/F [11]: 39.2 L
- half-life [11]: 3.74 h
- AUC(0-t) (Day 3, fast acetylators, Dose 4 interval, 20 mg QID, arith. mean, read-out: AUC0-4): 1460 ng·h/mL
- Cmax [12]: 509 ng/mL
- Tmax [12]: 1.1 h
- Vd/F [12]: 42 L
- half-life [12]: 4.17 h
- AUC(0-t) (Day 3, slow acetylators, Dose 1-4, 20 mg QID, arith. mean, read-out: AUC0-24): 3650 ng·h/mL
- AUC(0-t) (Day 3, slow acetylators, Dose 1 interval, 20 mg QID, arith. mean, read-out: AUC0-4): 523 ng·h/mL
- Cmax [13]: 206 ng/mL
- Tmax [13]: 1.75 h
- Vd/F [13]: 95 L
- half-life [13]: 3.47 h
- AUC(0-t) (Day 3, slow acetylators, Dose 2 interval, 20 mg QID, arith. mean, read-out: AUC0-4): 684 ng·h/mL
- Cmax [14]: 222 ng/mL
- Tmax [14]: 1.5 h
- Vd/F [14]: 81.5 L
- half-life [14]: 3.89 h
- AUC(0-t) (Day 3, slow acetylators, Dose 3 interval, 20 mg QID, arith. mean, read-out: AUC0-4): 802 ng·h/mL
- Cmax [15]: 249 ng/mL
- Tmax [15]: 1.2 h
- Vd/F [15]: 68.1 L
- half-life [15]: 3.75 h
- AUC(0-t) (Day 3, slow acetylators, Dose 4 interval, 20 mg QID, arith. mean, read-out: AUC0-4): 814 ng·h/mL
- Cmax [16]: 258 ng/mL
- Tmax [16]: 0.9 h
- Vd/F [16]: 78.3 L
- half-life [16]: 5.7 h
- AUC(0-t) (metabolite, Day 4, 20 mg single dose, fast acetylators, read-out: Mean AUC0-4): 1030 ng·h/mL
- AUC(0-t) (metabolite, Day 4, 20 mg single dose, fast acetylators, read-out: Mean AUC0-24): 2120 ng·h/mL
- AUC(0-t) (metabolite, Day 4, 20 mg single dose, slow acetylators, read-out: Mean AUC0-4): 513 ng·h/mL
- AUC(0-t) (metabolite, Day 4, 20 mg single dose, slow acetylators, read-out: Mean AUC0-24): 1230 ng·h/mL
- Mean CL/F [17]: 69.4 L/h
- Mean t1/2 [17]: 1.40 h
- Mean CL/F [18]: 116 L/h
- Mean t1/2 [18]: 1.55 h
